Assays:
[1] = test system: A2780; assay: Cellular proliferation assay (Alamar blue), A2780; type: cell-based; conditions: Homo sapiens, A2780, A2780 cells; 10% FCS; 72 h with compound; Alamar blue 24 h; read-out: pIC50 A2780 (converted)
Experimental: (§1) Cellular proliferation of these compounds was tested on a panel of different cell lines in the presence of 10% FCS serum (37° C. and 5% (v/v) CO2). In a first step these cells were seeded and incubated for 24 hours in the absence of compound. In the second step the cells were incubated for 72 hours with the compounds to be tested for 72 hours. The viable cell number was finally assessed in a standard Alamar blue cell viability assay.
(§2) The viable cell number was assessed by incubation for either 4 h (HCT-116, H1299) 6 h (U87-MG) or 24 h (A2780, PC3, MDA-MB-231) with Alamar blue (Resazurin 9 μg/ml, K-Ferrocyanide 90 μM, K-Ferricyanide 90 μM) and the converted fluorescent product was quantified on a fluorescent plate readed (544 nm/590 nm). Effect of the compounds is calculated as of on control cells.

[2] = test system: HCT-116; assay: Cellular proliferation assay (Alamar blue), HCT-116; type: cell-based; conditions: Homo sapiens; HCT-116 cells; 10% FCS; 72 h with compound; Alamar blue 4 h; read-out: pIC50 HCT-116 (converted)
Experimental: as §1, §2

[3] = test system: PC3; assay: Cellular proliferation assay (Alamar blue), PC3; type: cell-based; conditions: Homo sapiens, PC-3, PC-3 cells; 10% FCS; 72 h with compound; Alamar blue 24 h; read-out: pIC50 PC-3 (converted)
Experimental: as §1, §2

[4] = test system: U87-MG; assay: Cellular proliferation assay (Alamar blue), U87-MG; type: cell-based; conditions: Homo sapiens, U-87 MG; U87-MG cells; 10% FCS; 72 h with compound; Alamar blue 6 h; read-out: pIC50 U87MG (converted)
Experimental: as §1, §2

[5] = test system: H1299; assay: Cellular proliferation assay (Alamar blue), H1299; type: cell-based; conditions: Homo sapiens, NCI-H1299, H1299 cells; 10% FCS; 72 h with compound; Alamar blue 4 h; read-out: pIC50 H1299 (converted)
Experimental: as §1, §2

[6] = molecular target: T1, PLK4 (h) (Homo sapiens, UniProt O00444); assay: PLK-4 human kinase scintillation proximity assay (SPA); type: biochemical; conditions: 1 μM ATP, 60 minutes at r.t., read-out: PLK4 pIC50 (converted)
T1 sequence (O00444 1-970): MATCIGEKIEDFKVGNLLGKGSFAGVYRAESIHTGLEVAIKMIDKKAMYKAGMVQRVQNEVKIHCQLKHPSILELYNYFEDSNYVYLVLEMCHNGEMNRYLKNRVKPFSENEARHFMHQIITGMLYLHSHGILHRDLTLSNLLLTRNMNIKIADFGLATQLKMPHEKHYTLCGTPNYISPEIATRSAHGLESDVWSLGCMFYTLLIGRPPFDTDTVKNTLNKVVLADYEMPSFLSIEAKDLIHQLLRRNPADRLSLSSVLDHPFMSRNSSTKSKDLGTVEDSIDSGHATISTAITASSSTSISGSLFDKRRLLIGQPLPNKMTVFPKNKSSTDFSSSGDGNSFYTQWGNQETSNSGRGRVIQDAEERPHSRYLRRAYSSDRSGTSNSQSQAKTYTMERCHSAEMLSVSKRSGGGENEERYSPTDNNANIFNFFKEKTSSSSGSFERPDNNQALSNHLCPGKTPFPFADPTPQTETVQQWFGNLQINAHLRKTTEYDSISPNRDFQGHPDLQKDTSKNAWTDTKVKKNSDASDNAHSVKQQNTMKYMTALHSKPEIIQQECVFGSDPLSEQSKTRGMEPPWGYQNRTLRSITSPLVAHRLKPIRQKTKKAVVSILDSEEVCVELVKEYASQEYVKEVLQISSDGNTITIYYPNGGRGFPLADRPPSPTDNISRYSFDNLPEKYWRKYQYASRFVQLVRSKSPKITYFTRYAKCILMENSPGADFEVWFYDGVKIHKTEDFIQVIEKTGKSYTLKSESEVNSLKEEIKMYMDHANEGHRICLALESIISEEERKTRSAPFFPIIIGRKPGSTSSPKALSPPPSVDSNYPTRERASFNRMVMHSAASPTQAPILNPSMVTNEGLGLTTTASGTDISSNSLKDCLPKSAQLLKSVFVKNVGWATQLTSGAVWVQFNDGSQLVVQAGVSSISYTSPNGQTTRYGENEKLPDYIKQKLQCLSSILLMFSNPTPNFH
Experimental: The in vitro inhibition of a panel of kinases was assessed using either the scintillation proximity assay (SPA) as described by Cook, N. D. et al., Advances in Experimental Medicine and Biology (1991), 36; p. 525-528.
In the SPA technology the activity of the kinase of interest is measured using an appropriate biotinylated substrate that is incubated with the aforementioned kinase protein in the presence of (^33P) radiolabeled ATP. (^33P) Phosphorylation of the substrate is subsequently measured through binding of the phosphorylated substrate to streptavidine coated beads that are based on the scintillant poly(vinyl toluene) (PVT-Beads). The scintillation intensity is detected by imaging on Leadseeker.
All kinases are pre-diluted to a 10× working concentration prior to addition into the assay. The composition of the dilution buffer for each kinase is detailed below.
In a final reaction volume of 30 μl, PLK4 (h) (19 μg/ml) is incubated with 50 mM Hepes pH 8.0, 10 mM MgCl2, 50 mM NaCl, 1 mM NaF, 1 mM DTT, 10 μM of peptide Biotin-RPRGQRDSSYYWE-OH, 1 μM ATP and 2 nM [γ-^33P-ATP] (6.0 μCi/ml). After incubation of 60 minutes at r.t., the reaction is stopped by addition of 40 μL of stop solution containing 8.7 mM EDTA, BSA 0.17%, 0.17% Triton X-100, 1.7 mg/ml SPA beads (GE-healthcare). The plate is centrifuged and read for Scintillation imaging on Leadseeker.

[7] = test system: MDA-MB-231; assay: Cellular proliferation assay (Alamar blue), MDA-MB-231; type: cell-based; conditions: Homo sapiens, MDA-MB-231, MDA-MB-231 cells; 10% FCS; 72 h with compound; Alamar blue 24 h; read-out: pIC50 MDA/MB231 (converted)
Experimental: as §1, §2

| IC50 [1] [µM] | IC50 [2] [µM] | IC50 [3] [µM] | IC50 [4] [µM] | IC50 [5] [µM] | IC50 [6] [µM] | IC50 [7] [µM] | Compound |
| --- | --- | --- | --- | --- | --- | --- | --- |
| 5.01 | 3.98 | 10 | 10 | > 10 | 0.398 | > 10 | CN1CCCN(C)C(=O)Cc2cccc(c2)Nc2ncnc3[nH]cc(c23)C1 [Compound 24] |
| > 10 | > 10 | > 10 | > 10 | > 10 | > 10 | > 10 | COc1cc2cc(c1OC)CCC(=O)N(C)CCCN(C)Cc1c[nH]c3ncnc(c13)N2 [Compound 30] |
| 3.98 | 6.31 | > 10 | > 10 | > 10 | 0.794 | > 10 | CN1CCN(C)C(=O)CCCOc2cccc(c2)Nc2ncnc3[nH]cc(c23)C1 [Compound 31] |
| > 10 | > 10 | > 10 | > 10 | > 10 | > 10 | > 10 | COc1ccc2cc1CN(C)CC(=O)N(C)CCCc1c[nH]c3ncnc(c13)N2 [Compound 34] |
| > 10 | > 10 | > 10 | > 10 | > 10 | > 10 | > 10 | COCCN1CC(=O)N(C)CCCc2c[nH]c3ncnc(c23)Nc2ccc(OC)c(c2)C1 [Compound 36] |
| > 10 | > 10 | > 10 | > 10 | > 10 | > 10 | > 10 | COc1ccc2cc1CN(C(C)C)CC(=O)N(C)CCCc1c[nH]c3ncnc(c13)N2 [Compound 37] |
| > 10 | > 10 | > 10 | > 10 | > 10 | 2.51 | > 10 | COc1ccc2cc1OCCCCC(=O)N(C)CCN(C)Cc1c[nH]c3ncnc(c13)N2 [Compound 41] |
| > 10 | > 10 | > 10 | > 10 | > 10 | 3.16 | > 10 | CN1CCN(C)C(=O)CCc2cc(ccc2N2CCOCC2)Nc2ncnc3[nH]cc(c23)C1 [Compound 45] |
| > 10 | > 10 | > 10 | > 10 | > 10 | 1 | > 10 | COc1ccc2cc1CCC(=O)N(C)CCN(C)Cc1c[nH]c3ncnc(c13)N2 [Compound 46] |
| > 10 | > 10 | > 10 | > 10 | > 10 | 6.31 | > 10 | COc1cc2cc(c1OC)CCC(=O)N(C)CCN(C)Cc1c[nH]c3ncnc(c13)N2 [Compound 47] |

More lines, now with the values behind:

| Compound | IC50 [1] [µM] | IC50 [2] [µM] | IC50 [3] [µM] | IC50 [4] [µM] | IC50 [5] [µM] | IC50 [6] [µM] | IC50 [7] [µM] |
| --- | --- | --- | --- | --- | --- | --- | --- |
| COc1ccc2cc1OCCNC(=O)CN(C)Cc1c[nH]c3ncnc(c13)N2 [Compound 22] | 2 | 2 | 6.31 | 2.51 | 3.16 | 1.26 | 10 |
| CN1CC(=O)NCCOc2cccc(c2)Nc2ncnc3[nH]cc(c23)C1 [Compound 23] | 1 | 1.26 | 3.16 | 1.58 | 1 | 1.58 | 5.01 |
| COc1ccc2cc1OCC(=O)N1CCC[C@H]1CN(C)CCCc1c[nH]c3ncnc(c13)N2 [Compound 27] | > 10 | > 10 | > 10 | > 10 | > 10 | 6.31 | > 10 |
| COc1ccc2cc1OCC(=O)N[C@@H](C)CN(C)CCCc1c[nH]c3ncnc(c13)N2 [Compound 28] | > 10 | > 10 | > 10 | > 10 | > 10 | > 10 | > 10 |
| COc1ccc2cc1OCC(=O)N1CCCC(CN(C)CCCc3c[nH]c4ncnc(c34)N2)C1 (stereo not shown) [Compound 29] | > 10 | > 10 | > 10 | > 10 | > 10 | > 10 | > 10 |
| COc1ccc2cc1OCC(=O)NCN(C)CCCc1c[nH]c3ncnc(c13)N2 [Compound 33] | > 10 | > 10 | > 10 | > 10 | > 10 | 5.01 | > 10 |
| COc1ccc2cc1CN1CCCC(C1)C(=O)N(C)CCCc1c[nH]c3ncnc(c13)N2 (stereo not shown) [Compound 35] | > 10 | > 10 | > 10 | > 10 | > 10 | > 10 | > 10 |
| COc1ccc2cc1OCC(=O)N1CCC[C@@H]1CN(C)CCCc1c[nH]c3ncnc(c13)N2 [Compound 38] | > 10 | > 10 | > 10 | > 10 | > 10 | > 10 | > 10 |
| CN1CCN(C)C(=O)CCCOc2cc(ccc2N2CCOCC2)Nc2ncnc3[nH]cc(c23)C1 [Compound 40] | > 10 | > 10 | > 10 | > 10 | > 10 | 1.26 | > 10 |
| CN1CCN(C)C(=O)CCCOc2cc(ccc2Cl)Nc2ncnc3[nH]cc(c23)C1 [Compound 42] | > 10 | > 10 | > 10 | > 10 | > 10 | 0.794 | > 10 |
| CN1CCCN(C)C(=O)CCCOc2cc(ccc2N2CCOCC2)Nc2ncnc3[nH]cc(c23)C1 [Compound 44] | > 10 | > 10 | > 10 | > 10 | > 10 | 1.58 | > 10 |
| CN1CCN(C)C(=O)CCCCOc2cc(ccc2N2CCOCC2)Nc2ncnc3[nH]cc(c23)C1 [Compound 48] | > 10 | > 10 | > 10 | > 10 | > 10 | > 10 | > 3.16 |

Reference: US8318731B2, “Pyrrolopyrimidines” (Janssen Pharmaceutica NV, priority 2007, dated 2012)
